Test results published in patent US20260373226A1, “METHODS AND COMPOSITIONS FOR THE TREATMENT OF NEURODEGENERATIVE DISEASE” (Stealth BioTherapeutics Inc., priority 2022, published 2026).
“Also recorded” adds a separate entry of the source.

Tests used:
[1] = Steady state PK in plasma, CSF, brain after 5 daily s.c. doses in rats; type: in vivo, male Sprague-Dawley rat; conditions: rat, 10 mg/kg s.c., 5 daily doses
Method: Pharmacokinetic profile of SBT-272 in rat plasma, CSF, and brain (for FIG. 5A). The objective of this study was to evaluate the pharmacokinetics of SBT-272 in microdialysate from the prefrontal cortex (PFC) and striatum (STR), and in plasma and CSF of freely-moving adult male Sprague-Dawley rats. The experiments and the analysis were performed at Charles River Laboratories Den Bosch B.V., location Groningen (Groningen, the Netherlands).
Test items. Test compound was SBT-272. The molecular weight of SBT-272 is 607.75 g/mol in the salt-free form, and 717.13 g/mol in the salt form.
In vivo experiments: Animals. A total of six male Sprague-Dawley rats (309-329 g; CRL Sulzfeld, Germany) were used for the experiments. The experiments were conducted in strict accordance with the Guide for the Care and Use of Laboratory Animals (National Research Council 2011) and were in accordance with European Union directive 2010/63 and the Dutch law. The experiments were carried out under license number AVD23600202011187, issued by the national committee for licensing of animal experiments (Centrale Commissie Dierproeven) and were approved by the Animal Care and Use Committee (Instantie voor Dierenwelzijn) of Charles River Discovery Groningen.
Following arrival, animals were housed in groups of 5 in polycarbonate cages (56 X 33×20 cm) with wire mesh top in a temperature (22±2 °C) and humidity (55±15%) controlled environment on a 12 hour light cycle (07.00-19.00 h). After surgery, animals were housed individually (cages 30×30×40 cm). Standard diet (A04 mod. R/M-M, Ssniff, Germany) and domestic quality mains water were available ad libitum.
In vivo experiments: Surgery. Animals were anesthetized using isoflurane (2% and 800 mL/min 02). Before surgery, carprofen (5 mg/kg, s.c.) was administered for peri- and post-operative analgesia. A mixture of bupivacaine and epinephrine was applied to the incision site and periosteum of the skull for local analgesia.
In vivo experiments: Microdialysis probe implantation. Each animal was placed in a stereotaxic frame (Kopf instruments, USA). […]

[2] = Phase 1 clinical plasma PK in healthy volunteers; type: in vivo, human
Excerpt: (§1) The primary objective of this study is to evaluate the safety and tolerability of single and multiple ascending doses of SBT-272 administered via subcutaneous injection in healthy volunteers. The secondary objects of this study are to: (a) evaluate the plasma PK of SBT-272 in healthy volunteers following subcutaneous administration of single and multiple ascending doses; and (b) to determine an appropriate dose range for subsequence clinical evaluation.

[3] = Phase 1 clinical safety and tolerability in healthy volunteers; type: in vivo, human; conditions: Phase 1, healthy volunteers, SC; interim data analysis
Excerpt: as §1

With Cc1cc(O)cc(C)c1C[C@H](NC(=O)[C@H](N)CCCNC(=N)N)C(=O)N[C@@H](CCCCN)c1nc(Cc2ccccc2)no1 [SBT-272, (R)-2-amino-N—((S)-1-(((S)-5-amino-1-(3-benzyl-1,2,4-oxadiazol-5-yl)pentyl)amino)-3-(4-hydroxy-2,6-dimethylphenyl)-1-oxopropan-2-yl)-5-guanidinopentanamide] the Kp ([1]; brain, sc, read-out: brain:plasma ratio) was 178, the “brain:CSF ratio” value [1] was 182 and the “plasma:CSF ratio” value [1] was 1.03. For the same compound, the “clinical PK versus expectations based on rat and nonhuman primate profiles” value ([2]; Phase 1, healthy volunteers, SC) was “consistent with expectations based on rat and nonhuman primate profiles”, the “clinical PK profile versus non-clinical allometric scaling predictions” value ([2]; healthy subjects, FIG. 7, 40 mg once daily, interim) was “consistent with non-clinical allometric scaling predictions” and the safety profile [3] was “consistent safety profile; also recorded: generally safe”.
